Drawing on the OPERA property sets (Mansouri et al. 2018), this text covers logP for 23 compounds.

Each structure is given as a SMILES string.

By logP is commonly meant a log measure of how a compound divides between an organic and an aqueous phase. Lower therefore signals lower lipophilicity. For `CNc1cnccn1`, the logP is 0.56.
The compound `Clc1cnccn1` came in with a lipophilicity (logP) of 0.7.
As to `CCOc1ccccn1`, the log partition coefficient (logP) amounted to 1.81.
`Fc1cnccn1` displayed a logP of 0.29.
`CCOC(=O)c1cnccn1` showed a lipophilicity (logP) of 0.28.
`COc1cnccn1` gave a logP of 0.73.
The result for `CCCOc1ccccn1` reads 2.38.
`CSc1cnccn1` had a logP of 1.17.
In turn, `COC(=O)c1cnccn1` displayed a logP of -0.23.
With `CNc1ccccn1`, the logP was 1.12.
In turn, `CC(=O)Nc1cnccn1` gave a log partition coefficient (logP) of -0.03.
With `CC(=O)c1cnccn1`, the log partition coefficient (logP) stood at 0.2.
As for `CSc1ccccn1`, the log partition coefficient (logP) was determined as 1.71.
`Fc1ccccn1` registered a lipophilicity (logP) of 0.84.
The result for `CN(C)C(=O)c1ccccn1` reads -0.45; that for `CCOc1cnccn1`, 1.28; that for `COc1ccccn1`, 1.34.
`CN(C)C(=O)c1cnccn1` gave a log partition coefficient (logP) of -0.8.
The compound `CN(C)c1ccccn1` displayed a log partition coefficient (logP) of 1.65.
The result for `N#Cc1cnccn1` reads -0.01; that for `CCCOc1cnccn1`, 1.84; that for `CCc1cnccn1`, 0.69.
Take `CN(C)c1cnccn1`: the lipophilicity (logP) was 0.93.
